Reference: PMC5437664, “Inhibition of O-GlcNAcase leads to elevation of O-GlcNAc tau and reduction of tauopathy and cerebrospinal fluid tau in rTg4510 mice” (Molecular Neurodegeneration, 2017)

Target: O-GlcNAcase (OGA) (Mus musculus, UniProt Q9EQQ9)
Experiment: biochemical

Sequence of O-GlcNAcase (OGA) (Q9EQQ9 whole entry): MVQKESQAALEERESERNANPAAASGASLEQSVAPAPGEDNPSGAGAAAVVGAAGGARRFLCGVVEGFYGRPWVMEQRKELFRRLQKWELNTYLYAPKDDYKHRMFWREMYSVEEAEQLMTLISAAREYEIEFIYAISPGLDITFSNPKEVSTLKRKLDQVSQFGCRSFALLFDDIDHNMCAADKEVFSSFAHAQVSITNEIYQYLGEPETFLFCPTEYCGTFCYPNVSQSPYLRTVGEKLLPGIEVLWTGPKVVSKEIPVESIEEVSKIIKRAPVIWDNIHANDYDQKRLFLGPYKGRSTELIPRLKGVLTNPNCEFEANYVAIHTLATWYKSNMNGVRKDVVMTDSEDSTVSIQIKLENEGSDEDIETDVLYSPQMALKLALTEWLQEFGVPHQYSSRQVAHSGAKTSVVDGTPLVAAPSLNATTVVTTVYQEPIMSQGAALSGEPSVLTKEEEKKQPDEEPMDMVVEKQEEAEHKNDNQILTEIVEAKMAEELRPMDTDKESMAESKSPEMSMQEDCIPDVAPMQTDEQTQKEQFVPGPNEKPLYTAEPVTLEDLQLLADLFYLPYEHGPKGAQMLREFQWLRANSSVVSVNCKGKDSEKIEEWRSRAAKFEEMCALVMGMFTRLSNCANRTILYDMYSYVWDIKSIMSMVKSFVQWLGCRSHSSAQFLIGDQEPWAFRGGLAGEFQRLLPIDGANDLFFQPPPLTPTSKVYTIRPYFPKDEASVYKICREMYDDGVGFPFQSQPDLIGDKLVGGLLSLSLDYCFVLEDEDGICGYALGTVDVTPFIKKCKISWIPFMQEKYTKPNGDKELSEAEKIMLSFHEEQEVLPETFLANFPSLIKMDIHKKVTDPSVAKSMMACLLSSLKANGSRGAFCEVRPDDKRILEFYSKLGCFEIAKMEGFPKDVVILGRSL

## CCNC1=N[C@@H]2[C@@H](O)[C@H](O)[C@@H](CO)O[C@@H]2S1 [Thiamet G]
  Kd: 1.7 nM
